From article PMC12028158, “Synthesis and In Vitro Evaluation of the Anticancer Effect of Novel Phosphonium Vindoline Derivatives” (International Journal of Molecular Sciences, 2025)
Read-outs that look alike come from different tables or passages of the source.

Key:
Format in all cases: cell-based
M14 = assay: NCI60 five-dose screen; details: Homo sapiens
MDA-MB-231/ATCC = assay: NCI60 one-dose screen; details: Homo sapiens
HS 578T [1] = assay: NCI60 five-dose screen; details: Homo sapiens
HS 578T [2] = assay: NCI60 one-dose screen; details: Homo sapiens, read-out: Growth percent
CCRF-CEM = assay: NCI60 one-dose screen; details: Homo sapiens, read-out: Growth percent
NCI-H226 = assay: NCI60 five-dose screen; details: Homo sapiens
COLO 205 = assay: NCI60 five-dose screen; details: Homo sapiens
BT-549 = assay: NCI60 five-dose screen; details: Homo sapiens
T-47D = assay: NCI60 one-dose screen; details: Homo sapiens, T47D, read-out: Growth percent
A549/ATCC [3] = assay: NCI60 one-dose screen; details: Homo sapiens
MOLT-4 = assay: NCI60 one-dose screen; details: Homo sapiens
HOP-92 = assay: NCI60 one-dose screen; details: Homo sapiens
PC-3 = assay: NCI60 one-dose screen; details: Homo sapiens
SR = assay: NCI60 five-dose screen; details: Homo sapiens
UACC-62 = assay: NCI60 one-dose screen; details: Homo sapiens
UACC-257 = assay: NCI60 one-dose screen; details: Homo sapiens
786-0 = assay: NCI60 one-dose screen; details: Homo sapiens
SF-268 = assay: NCI60 five-dose screen; details: Homo sapiens
CAKI-1 = assay: NCI60 five-dose screen; details: Homo sapiens
NCI/ADR-RES = assay: NCI60 five-dose screen; details: Homo sapiens
SNB-75 = assay: NCI60 one-dose screen; details: Homo sapiens
A549/ATCC [4] = assay: NCI60 five-dose screen; details: Homo sapiens
K-562 [5] = assay: NCI60 five-dose screen; details: Homo sapiens, K562
A498 = assay: NCI60 one-dose screen; details: Homo sapiens
MDA-MB-468 = assay: NCI60 one-dose screen; details: Homo sapiens
U251 = assay: NCI60 five-dose screen; details: Homo sapiens
K-562 [6] = assay: NCI60 one-dose screen; details: Homo sapiens
SK-OV-3 = assay: NCI60 one-dose screen; details: Homo sapiens
TK-10 = assay: NCI60 one-dose screen; details: Homo sapiens
OVCAR-5 = assay: NCI60 five-dose screen; details: Homo sapiens
NCI-H322M = assay: NCI60 five-dose screen; details: Homo sapiens
HCC-2998 = assay: NCI60 five-dose screen; details: Homo sapiens
SN12C = assay: NCI60 five-dose screen; details: Homo sapiens

## CCC12C=CCN3CCC4(c5ccc(OC)cc5N(C)C4C(O)(C(=O)OC)C1OC(=O)CCC[P+](c1ccc(C)cc1)(c1ccc(C)cc1)c1ccc(C)cc1)C32 (stereo not drawn) [9a]
M14; M14
  GI50: 456 nM
MDA-MB-231/ATCC; MDA-MB-231, read-out: Growth percent
  activity at 10 µM: -94.8%
HS 578T [1]; Hs-578T
  GI50: 344 nM
HS 578T [2]; Hs-578T
  activity at 10 µM: -60.3%
CCRF-CEM
  activity at 10 µM: -67%
NCI-H226; NCI-H226
  GI50: 521 nM
COLO 205; COLO 205
  GI50: 176 nM
BT-549; BT-549
  GI50: 247 nM
T-47D
  activity at 10 µM: -78.4%
A549/ATCC [3]; A549, read-out: Growth percent
  activity at 10 µM: -90.3%
MOLT-4; MOLT-4, read-out: Growth percent
  activity at 10 µM: -45.1%
HOP-92; HOP-92, read-out: Growth percent
  activity at 10 µM: -83.2%
PC-3; PC-3, read-out: Growth percent
  activity at 10 µM: -83.3%
SR
  GI50: 281 nM
UACC-62; UACC-62, read-out: Growth percent
  activity at 10 µM: -96.8%
UACC-257; UACC-257, read-out: Growth percent
  activity at 10 µM: -92.7%
786-0; 786-0, read-out: Growth percent
  activity at 10 µM: -88%
SF-268; SF-268
  GI50: 343 nM
CAKI-1; CAKI-1
  GI50: 1870 nM
NCI/ADR-RES
  GI50: 8870 nM
SNB-75; SNB-75, read-out: Growth percent
  activity at 10 µM: -61.2%
A549/ATCC [4]; A549
  GI50: 334 nM
K-562 [5]
  GI50: 291 nM
A498; A498, read-out: Growth percent
  activity at 10 µM: -88.6%
MDA-MB-468; MDA-MB-468, read-out: Growth percent
  activity at 10 µM: -92.1%
U251; U-251
  GI50: 291 nM
K-562 [6]; K562, read-out: Growth percent
  activity at 10 µM: -13.1%
SK-OV-3; SK-OV-3, read-out: Growth percent
  activity at 10 µM: -81%
TK-10; TK-10, read-out: Growth percent
  activity at 10 µM: -88.5%
OVCAR-5; OVCAR-5
  GI50: 331 nM
NCI-H322M
  GI50: 785 nM
HCC-2998; HCC 2998
  GI50: 415 nM
SN12C
  GI50: 291 nM

## CC[C@]12C=CCN3CC[C@@]4(c5ccc(OC)cc5N(C)[C@H]4[C@@](O)(C(=O)OC)[C@@H]1OC(=O)CCC[P+](c1ccc(OC)cc1)(c1ccc(OC)cc1)c1ccc(OC)cc1)[C@@H]32 [9b]
M14; M14, Melanoma, five-dose, read-out: GI50
  GI50: 1120 nM
MDA-MB-231/ATCC; MDA-MB-231/ATCC, 10 μM, one-dose, read-out: Growth percent
  activity at 10 µM: -97%
HS 578T [1]; HS 578T, Breast Cancer, five-dose, read-out: GI50
  GI50: 1180 nM
HS 578T [2]; HS 578T, 10 μM, one-dose
  activity at 10 µM: -65.4%
CCRF-CEM; 10 μM, one-dose
  activity at 10 µM: -71.2%
NCI-H226; NCI-H226, Non-small Cell Lung Cancer, five-dose, read-out: GI50
  GI50: 1430 nM
COLO 205; COLO 205, COLO 205, Colon Cancer, five-dose, read-out: GI50
  GI50: 194 nM
BT-549; BT-549, Breast Cancer, five-dose, read-out: GI50
  GI50: 1050 nM
T-47D; T-47D, 10 μM, one-dose
  activity at 10 µM: -61.4%
A549/ATCC [3]; A549/ATCC, 10 μM, one-dose, read-out: Growth percent
  activity at 10 µM: -91.4%
MOLT-4; MOLT-4, 10 μM, one-dose, read-out: Growth percent
  activity at 10 µM: -36.8%
HOP-92; HOP-92, 10 μM, one-dose, read-out: Growth percent
  activity at 10 µM: -82.9%
PC-3; PC-3, 10 μM, one-dose, read-out: Growth percent
  activity at 10 µM: -78.8%
SR; Leukemia, five-dose, read-out: GI50
  GI50: 389 nM
UACC-62; UACC-62, 10 μM, one-dose, read-out: Growth percent
  activity at 10 µM: -97.1%
UACC-257; UACC-257, 10 μM, one-dose, read-out: Growth percent
  activity at 10 µM: -93.5%
786-0; 786-0, 10 μM, one-dose, read-out: Growth percent
  activity at 10 µM: -89.5%
SF-268; SF-268, CNS Cancer, five-dose, read-out: GI50
  GI50: 1210 nM
CAKI-1; CAKI-1, Renal Cancer, five-dose, read-out: GI50
  GI50: 13700 nM
NCI/ADR-RES; Ovarian Cancer, five-dose, read-out: GI50
  GI50: 18100 nM
SNB-75; SNB-75, 10 μM, one-dose, read-out: Growth percent
  activity at 10 µM: -34%
A549/ATCC [4]; A549/ATCC, Non-small Cell Lung Cancer, five-dose, read-out: GI50
  GI50: 731 nM
K-562 [5]; K-562, Leukemia, five-dose, read-out: GI50
  GI50: 556 nM
A498; A498, 10 μM, one-dose, read-out: Growth percent
  activity at 10 µM: -83.2%
MDA-MB-468; MDA-MB-468, 10 μM, one-dose, read-out: Growth percent
  activity at 10 µM: -92.1%
U251; U-251, U251, CNS Cancer, five-dose, read-out: GI50
  GI50: 360 nM
K-562 [6]; K562, K-562, 10 μM, one-dose, read-out: Growth percent
  activity at 10 µM: -1.75%
SK-OV-3; SK-OV-3, 10 μM, one-dose, read-out: Growth percent
  activity at 10 µM: -85.1%
TK-10; TK-10, 10 μM, one-dose, read-out: Growth percent
  activity at 10 µM: -90.7%
OVCAR-5; OVCAR-5, Ovarian Cancer, five-dose, read-out: GI50
  GI50: 1770 nM
NCI-H322M; Non-small Cell Lung Cancer, five-dose, read-out: GI50
  GI50: 2860 nM
HCC-2998; HCC-2998, Colon Cancer, five-dose, read-out: GI50
  GI50: 498 nM
SN12C; Renal Cancer, five-dose, read-out: GI50
  GI50: 672 nM
